These results are taken from US5436246A, “Serotonin receptor agents” (priority 1993, dated 1995).

Where a name gives a salt, the structure may show the parent alone. Read-outs that look alike come from different tables or passages of the source.

The target in assay [1] is T1, 5HT1A receptor (Rattus norvegicus, UniProt P19327).
T1 sequence (P19327 1-422): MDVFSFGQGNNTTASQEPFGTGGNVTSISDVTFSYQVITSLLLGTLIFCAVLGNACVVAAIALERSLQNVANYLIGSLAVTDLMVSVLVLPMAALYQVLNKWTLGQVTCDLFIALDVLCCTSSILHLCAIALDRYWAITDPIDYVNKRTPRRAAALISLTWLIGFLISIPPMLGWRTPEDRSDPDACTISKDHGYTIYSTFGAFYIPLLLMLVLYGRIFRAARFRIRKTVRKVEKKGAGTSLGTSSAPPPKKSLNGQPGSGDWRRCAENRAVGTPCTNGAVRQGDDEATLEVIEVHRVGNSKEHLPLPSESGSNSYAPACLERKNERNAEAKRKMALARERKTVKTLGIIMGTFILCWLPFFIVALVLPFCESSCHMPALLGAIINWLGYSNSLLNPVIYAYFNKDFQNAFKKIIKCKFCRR
In words: 5HT1A receptor binding affinity (procedure of Gozlan et al.). As for the experimental part:
In the following examples, the compounds binding affinity for both the 5HT1A receptor and 5HT1D receptors is reported. The compounds affinity for the 5HT1D site was determined by the binding procedure of Peroutka et al as reported in European Journal of Pharmacology, Vol. 163 at pages 133-166 (1989). The compounds affinity for the 5HT1A receptor was determined by the procedure of Gozlan et al., as reported in Nature, Volume 305, at pages 140-142 (1983). Where multiple determinations of the binding affinity have been performed, the average is given followed by the number of determinations in parentheses. Also, the PA2 value for the saphenous vein preparation as described in this application is given, followed by the intrinsic (agonist) activity in parentheses, expressed as a percentage. [drawing 10] […]

In assay [2] the target is T2, 5HT1D receptor (Bos taurus, UniProt F1MGM3).
T2 construct: from tissue
In words: 5HT1D receptor binding affinity (procedure of Peroutka et al.).
Description: The compounds affinity for the 5HT1D site was determined by the binding procedure of Peroutka et al as reported in European Journal of Pharmacology, Vol. 163 at pages 133-166 (1989). […] Where multiple determinations of the binding affinity have been performed, the average is given followed by the number of determinations in parentheses.

Assay [3] has as its target 5-HT1D receptors (Canis lupus familiaris, UniProt P79250). Details: species or system dog (canine). To be noted: for Emax: dog, read-out: intrinsic (agonist) activity, saphenous vein preparation. As for the experimental part:
In the following examples, the compounds binding affinity for both the 5HT1A receptor and 5HT1D receptors is reported. The compounds affinity for the 5HT1D site was determined by the binding procedure of Peroutka et al as reported in European Journal of Pharmacology, Vol. 163 at pages 133-166 (1989). The compounds affinity for the 5HT1A receptor was determined by the procedure of Gozlan et al., as reported in Nature, Volume 305, at pages 140-142 (1983). Where multiple determinations of the binding affinity have been performed, the average is given followed by the number of determinations in parentheses. Also, the PA2 value for the saphenous vein preparation as described in this application is given, followed by the intrinsic (agonist) activity in parentheses, expressed as a percentage. [drawing 10]
We have used canine saphenous vein for studying 5-HT1D receptors which is similar, although not totally identical, to human coronary 5-HT1D receptors (see Humphrey, P. P. A., Feniuk, W., Perren, M. J., Connor, H. E., Oxford, A. W., Coates, I. H. and Butina, D.: GR43175, a selective agonist for the 5-HT1 -like receptor in dog isolated saphenous vein, Br. J. Pharmacol. 94:1123-1132, 1988; Kaumann, A. J.: Human heart 5-HT receptors, Second international symposium on serotonin, from cell biology to pharmacology and therapeutics, Houston, Sep. 15-18, 1992).
Mongrel dogs weighing 12-18 kg were killed by an intravenous injection of an overdose of sodium pentobarbitol. Saphenous veins were isolated, removed, cleaned of surrounding connective tissue, and cut into helical strips in a dish containing Krebs-Henseleit solution with the following composition in mM: NaCl, 110.0; KCl, 4.8; CaCl2, 2.5; KH2 PO4, 1.2; EDTA(NaEDTA), 0.027; and was constantly bubbled with 95% O2 -5% CO2. Unless otherwise specified, the endothelium of the […] was removed by rubbing with a metal rod. The intactness or absence of functional endothelium was checked by the presence or absence of a relaxant effect of acetycholine (10^-5 M) in phenylephrine-contracted tissues (see Furchgott, R. F. and Zawadzki, J. V.: The obligatory role of endothelial cells in the relaxtion of arterial smooth muscle by acetycholine, Nature 288:373-376, 1980). Each muscle strip (3×30 mm) was set up in a tissue bath at 37° C. and loaded with 2 gram tension. Contractility of the tissues was measured isometrically with a Grass FT03 force-displacement transducer and recorded on a Strip chart recorder. The tissues were allowed to stabilize for 2 hours before the experiment was started, during which time they were washed repeatedly. Tissues were contracted with 3.162×10^-6 M phenylephrine and 40 mM KCl, which produced 60-70% of their maximum contractile responses, to condition the tissue. 5-HT dose response experiment was conducted. Test compounds were then incubated with the tissue before a second 5-HT dose response experiment was performed. Data are expressed as the pA2 value, the negative logarithm of the molar concentration of antagonist which produced a 2 fold shift in ED50 values of 5-HT dose response curves (see Van Rossum, J. M.: Cumulative dose-response curve: Technique for the making of dose-response curves in isolated organs and the evaluation of drug parameters, Arch. Int. Pharmacodyn. Ther. 143:299-330, 1963).

[4] abbreviates: negative log molar concentration of antagonist producing 2 fold shift in ED50 of 5-HT dose response curves, read-out: pA2 (blocking of 5-HT1-like-mediated contraction in canine saphenous vein) (converted).
[5] abbreviates: average of multiple determinations where number in parentheses is given, read-out: IC50 (5HT1A Binding Affinity).
The mark [6] stands for this setting: average of multiple determinations where number in parentheses is given, read-out: IC50 (5HT1D Binding Affinity).
The mark [7] stands for this setting: canine saphenous vein, printed in parentheses after pA2.

T2 sequence (F1MGM3 1-403): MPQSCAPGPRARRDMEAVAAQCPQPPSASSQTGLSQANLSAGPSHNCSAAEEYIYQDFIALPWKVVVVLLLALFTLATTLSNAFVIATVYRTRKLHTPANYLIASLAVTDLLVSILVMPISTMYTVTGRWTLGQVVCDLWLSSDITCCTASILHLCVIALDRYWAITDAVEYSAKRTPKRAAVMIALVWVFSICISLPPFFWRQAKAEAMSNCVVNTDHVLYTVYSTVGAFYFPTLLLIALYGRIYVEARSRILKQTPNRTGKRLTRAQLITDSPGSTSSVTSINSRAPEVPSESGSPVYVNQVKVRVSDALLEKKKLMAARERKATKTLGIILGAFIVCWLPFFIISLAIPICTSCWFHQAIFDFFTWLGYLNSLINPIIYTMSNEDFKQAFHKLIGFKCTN
5-HT1D receptors, sequence (P79250 whole entry): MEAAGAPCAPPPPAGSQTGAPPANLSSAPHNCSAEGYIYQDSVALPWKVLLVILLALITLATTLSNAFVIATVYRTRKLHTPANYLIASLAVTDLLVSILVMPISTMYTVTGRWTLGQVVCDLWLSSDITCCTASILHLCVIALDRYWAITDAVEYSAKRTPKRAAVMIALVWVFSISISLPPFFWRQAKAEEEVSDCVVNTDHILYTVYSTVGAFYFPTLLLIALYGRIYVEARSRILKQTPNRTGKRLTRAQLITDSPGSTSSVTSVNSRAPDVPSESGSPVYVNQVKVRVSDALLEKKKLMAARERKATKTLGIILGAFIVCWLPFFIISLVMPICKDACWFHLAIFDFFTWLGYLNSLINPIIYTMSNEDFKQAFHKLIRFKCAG

A word on the IC50: it is the concentration needed to halve the response being measured. Consider `CNC(=O)c1cc2c(N3CCN(CCc4ccccc4)CC3)cccc2s1` [Example 10, 4-[4-(2-phenylethyl)-1-piperazinyl]-benzo[b]thiophene-2-(N-methyl)-carboxamide monohydrochloride], for which the IC50 in assay [1] and in assay [2] was 1 nM each time. Moreover, the Emax in assay [3] was 25%. In assay [3] (setting [4]), the Kb is 0.0251 nM.
With `CN(C)C(=O)c1cc2c(N3CCN(CCc4ccccc4)CC3)cccc2s1` [Example 11, 4-[4-(2-phenylethyl)-1-piperazinyl]-benzo[b]thiophene-2-(N,N-dimethyl)-carboxamide monohydrochloride], the values for the IC50 in assay [1] (setting [5]) and in assay [2] (setting [6]) were 2.3 nM and 3 nM, respectively. Also, the Emax in assay [3] (setting [7]) turned out to be 2%. Further, in assay [3] (setting [4]), the Kb is 0.977 nM.
As for `O=C(Nc1ccccc1)c1cc2c(N3CCN(CCc4ccccc4)CC3)cccc2s1` [Example 12, 4-[4-(2-phenylethyl)-1-piperazinyl]-benzo[b]thiophene2-(N-phenyl)-carboxamide monohydrochloride], the IC50 in assay [1] (setting [5]) came to 85 nM; in assay [2] (setting [6]) it was 220 nM. The Emax in assay [3] (setting [7]) came out at 0%. Moreover, the Kb in assay [3] (setting [4]) was 18.2 nM.
For the compound `O=C(NCc1ccccc1)c1cc2c(N3CCN(CCc4ccccc4)CC3)cccc2s1` [Example 13, 4-[4-(2-phenylethyl)-1-piperazinyl]-benzo[b]thiophene-2-(N-phenylmethyl)-carboxamide monohydrochloride], the IC50 in assay [1] (setting [5]) worked out at 27 nM; in assay [2] (setting [6]), 31 nM. Besides, the Emax in assay [3] (setting [7]) is 0%. In addition, the Kb in assay [3] (setting [4]) is 1.74 nM.
As to `NC(=O)c1cc2c(N3CCN(CCCc4ccccc4)CC3)cccc2s1` [Example 17, 4-[4-(3-phenylpropyl)-1-piperazinyl]-benzo[b]thiophene-2-carboxamide monohydrochloride], the IC50 turned out to be 1 nM in assay [1] (setting [5]) and 4.5 nM in assay [2] (setting [6]). In assay [3] (setting [4]), the Kb was 16.6 nM.
In the case of `CCOC(=O)c1cc2c(N3CCN(CCc4ccc(Cl)cc4)CC3)cccc2s1` [Example 18, ethyl-4-[4-[2-(4-chlorophenyl)ethyl]-1-piperazinyl]-benzo[b]thiophene-2-carboxylate monohydrochloride], the IC50 in assay [1] (setting [5]) came to 53 nM; in assay [2] (setting [6]) it was 411 nM. Further, the Kb in assay [3] (setting [4]) was 309 nM.
`N#Cc1cc2c(N3CCN(CCc4ccc(Cl)cc4)CC3)cccc2s1` [Example 20, 4-[4-[2-(4-chlorophenyl)ethyl]-1-piperazinyl]-benzo[b]thiophene-2-nitrile monohydrochloride] registered an IC50 in assay [1] of 13 nM. For the same compound, the IC50 in assay [2] came out at 31 nM. In assay [3], the Kb is 42.7 nM and the Emax came out at 34%.
With `CCOC(=O)c1cc2c(N3CCN(CCc4ccc(F)cc4)CC3)cccc2s1` [Example 22, ethyl-4-[4-[2-(4-fluorophenyl)ethyl]-1-piperazinyl]-benzo[b]thiophene-2-carboxylate monohydrochloride], the IC50 is 7.4 nM in assay [1] (setting [5]) and 120 nM in assay [2] (setting [6]). The Emax in assay [3] was 0%. The Kb in assay [3] (setting [4]) is 29.5 nM.
Compound `N#Cc1cc2c(N3CCN(CCc4ccc(F)cc4)CC3)cccc2s1` [Example 24, 4-[4-[2-(4-fluorophenyl)ethyl]-1-piperazinyl]-benzo[b]thiophene-2-nitrile monohydrochloride] returned an IC50 in assay [1] of 10 nM. Besides, in assay [2], the IC50 is 21 nM. Also, in assay [3], the Kb is 6.76 nM and the Emax was 9%.
With `CCCN1CCN(c2cccc3sc(C(=O)OCC)cc23)CC1` [Example 34, Ethyl 4-[(4-propyl)-1-piperazinyl]benzo[b]thiophene-2-carboxylate hydrochloride], the half-inhibitory concentration (IC50) came out at 104 nM in assay [1] (setting [5]) and 416 nM in assay [2] (setting [6]). In addition, the Emax in assay [3] turned out to be 12%. For the same compound, the Kb in assay [3] (setting [4]) is 166 nM.
As to `COCc1cc2c(N3CCN(CCc4ccccc4)CC3)cccc2s1` [Example 37, 4-[4-(2-phenylethyl)-1-piperazinyl]-benzo[b]thiophene-2-(O-methyl)-methanol hydrochloride], the IC50 in assay [1] stood at 5 nM; in assay [2], 9 nM. Moreover, the Emax in assay [3] was 0%. Also, the Kb in assay [3] (setting [4]) was 9.33 nM.
Consider `CON(C)C(=O)c1cc2c(N3CCN(CCc4ccccc4)CC3)cccc2s1` [Example 40, 4-[4-(2-phenylethyl)-1-piperazinyl]-benzo[b]thiophene-2-(N-methyl-N-methoxy)-carboxamide hydrochloride], for which the IC50 in assay [1] (setting [5]) came out at 2.4 nM; in assay [2] (setting [6]), 16 nM. Also, the Emax in assay [3] (setting [7]) was determined as 3%. Also, in assay [3] (setting [4]), the Kb was 3.16 nM.
For `CC(C)(O)c1cc2c(N3CCN(CCc4ccccc4)CC3)cccc2s1` [Example 41, 2-[4-[4-(2-phenylethyl)-1-piperazinyl]benzo[b]thiophene-2-]-(2-propanol) hydrochloride hemihydrate], the results for the concentration for half-maximal inhibition (IC50) in assay [1] and in assay [2] were 4 nM and 16 nM, respectively. Besides, the Emax in assay [3] worked out at 16%. Further, the Kb in assay [3] (setting [4]) was 36.3 nM.
As for `CC(=O)c1cc2c(N3CCN(CCc4ccccc4)CC3)cccc2s1` [Example 42, 1-[4-(4-phenethyl-piperazin-1-yl)-benzo[b]thiophen-2-yl]ethanone hydrochloride], the IC50 in assay [2] was determined as 22 nM. For the same compound, in assay [3], the Kb is 13.5 nM and the Emax was 1%.
Take `O=C(c1cc2c(N3CCN(CCc4ccccc4)CC3)cccc2s1)N1CCCCC1` [Example 56, [4-(4-phenethyl-piperazin-1-yl)-benzo[b]thiophen-2-yl]-piperidin-1-yl methanone hydrochloride]: the IC50 in assay [2] (setting [6]) worked out at 135 nM. Also, in assay [3], the Emax was determined as 2%. In addition, the Kb in assay [3] (setting [4]) is 112 nM.
As to `O=C(c1cc2c(N3CCN(CCc4ccccc4)CC3)cccc2s1)N1CCCC1` [Example 57, [4-(4-phenethyl-piperazin-1-yl)-benzo[b]thiophen-2-yl]-pyrrolidin-1-yl methanone hydrochloride], the IC50 in assay [2] (setting [6]) is 25 nM. Moreover, the Emax in assay [3] came out at 0%. For the same compound, the Kb in assay [3] (setting [4]) is 4.27 nM.
With `OCC=Cc1cc2c(N3CCN(CCc4ccccc4)CC3)cccc2s1` [Example 59, 3-[4-(4-phenethyl-piperazin-1-yl)-benzo[b]thiophen-2-yl]-prop-2-en-1-ol hydrochloride], in assay [3], the Kb is 0.55 nM and the Emax was 0%.
